Assay [1] deals with EP2 (Homo sapiens (Human), UniProt P43116). Briefly: hEP2 cAMP assay (SF295 glioblastoma cells, HTRF cAMP). The class given is cell-based. The note with it: antagonistic activity. From the text: (§1) Human tumor cell lines expressing endogenously either EP4 or EP2 are used and cAMP accumulation in cells upon PGE2 stimulation is monitored. SF295 glioblastoma cells express high endogenous EP2 and no EP4, whereas BT549 breast cancer cells, express high endogenous EP4 levels and very low EP2 levels.
EP2, sequence (P43116 whole entry): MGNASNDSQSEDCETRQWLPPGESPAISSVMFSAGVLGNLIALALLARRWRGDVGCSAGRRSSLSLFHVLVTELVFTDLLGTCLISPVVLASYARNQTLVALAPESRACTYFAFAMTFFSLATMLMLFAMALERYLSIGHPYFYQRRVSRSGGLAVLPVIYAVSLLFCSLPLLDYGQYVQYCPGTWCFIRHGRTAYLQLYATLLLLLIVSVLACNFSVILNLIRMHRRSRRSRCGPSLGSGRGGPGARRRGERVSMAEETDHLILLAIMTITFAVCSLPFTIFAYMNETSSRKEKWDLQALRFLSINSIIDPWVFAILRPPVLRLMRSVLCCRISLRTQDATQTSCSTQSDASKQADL
(§2) As a detection method for cAMP the HTRF (homogeneous time resolved fluorescence) Cisbio kit (HTRF cAMP dynamic 2 kit 20'000 tests Cisbio Cat. #62AM4PEC) was used, which is based on a competitive immunoassay using a Cryptate-labeled anti-cAMP antibody and d2-labeled cAMP. Native cAMP produced by cells or unlabeled cAMP (for the standard curve) compete with exogenously added d2-labeled cAMP (acceptor) for binding to monoclonal anti-cAMP-Eu3+Cryptate (donor). A FRET signal (Fluorescence Resonance Energy Transfer) is obtained only if the labeled anti-cAMP antibody binds the d2 labelled cAMP, thus the specific signal (i.e. energy transfer) is inversely proportional to the concentration of cAMP in the standard or sample.
(§3) Cells are counted washed and resuspended in assay buffer (AB; HBSS, 20 mM HEPES, 0.2% BSA; 2 mM IBMX).
Plate is pre-incubated 45 minutes at RT. […] Plate is incubated 30 minutes at RT.
A general note: Changes in cAMP serve as a functional read-out for many G protein-coupled receptors.

Assay [2] addresses EP4 (Homo sapiens (Human), UniProt P35408). Briefly: hEP4 cAMP assay (BT549 breast cancer cells, HTRF cAMP). The class given is cell-based. The note with it: antagonistic activity, PGE2 6 nM.
Description: as §1, §2, §3
Plate is pre-incubated 45 minutes at RT. Subsequently, 2.5 microliters of PGE2 (final conc. 6 nM) are transferred into the assay plate. Plate is incubated 30 minutes at RT.

In assay [3] the target is PTGER2 (EP2) (Homo sapiens (Human), UniProt P43116). Briefly: hEP2 b-arrestin assay (PathHunter HEK 293 PTGER2 b-arrestin cells). The class given is cell-based. As to conditions: antagonistic activity, beta-arrestin assay; read-out: hEP2 b-arr IC50. As to the method:
Plate is pre-incubated 15 minutes at 37° C. Then five microliters of PGE2 (final conc. 5 μM) are transferred into the assay plate. Plate is incubated 120 minutes at 37° C.
(each concentration is measured in duplicate)

The target in assay [4] is PTGER4 (EP4) (Homo sapiens (Human), UniProt P35408). Briefly: cell-based.
PTGER4 (EP4), sequence (P35408 whole entry): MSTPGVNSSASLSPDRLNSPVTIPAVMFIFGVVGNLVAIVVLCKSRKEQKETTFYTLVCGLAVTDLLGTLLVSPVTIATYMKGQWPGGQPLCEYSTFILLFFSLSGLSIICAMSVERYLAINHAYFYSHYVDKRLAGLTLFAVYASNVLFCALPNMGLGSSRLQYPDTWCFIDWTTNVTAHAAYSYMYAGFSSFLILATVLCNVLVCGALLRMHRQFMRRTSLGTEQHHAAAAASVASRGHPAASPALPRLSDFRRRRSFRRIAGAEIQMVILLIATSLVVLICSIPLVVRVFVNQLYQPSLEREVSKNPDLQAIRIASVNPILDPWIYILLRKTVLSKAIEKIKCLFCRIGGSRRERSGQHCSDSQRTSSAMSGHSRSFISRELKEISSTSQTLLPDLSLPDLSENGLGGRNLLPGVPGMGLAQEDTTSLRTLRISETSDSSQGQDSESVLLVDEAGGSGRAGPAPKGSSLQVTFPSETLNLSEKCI

Molecules are shown by their SMILES.

IC50 data for 29 molecules are collected here from patent US11839613B2, “Pyrimidine derivatives as PGE2 receptor modulators” (IDORSIA PHARMACEUTICALS LTD, priority 2017, dated 2023).

PTGER2 (EP2), sequence (P43116 whole entry): as the sequence (P43116 whole entry) above
EP4, sequence (P35408 whole entry): as the sequence (P35408 whole entry) above

In general, IC50 refers to the point on the concentration scale where inhibition reaches its midpoint. Consider `Cc1c(CCNc2cc(-c3ccc(C(=O)O)c(OC4CCC4)c3)ncn2)ccc2cccnc12` [Ex 235], for which the IC50 in assay [1] is 772 nM; in assay [2], 325 nM.
Turning to `CCOc1cc(-c2cc(NCCc3ccc4sccc4c3)ncn2)ccc1OC(C)(C)C(=O)O` [Ex 321], the concentration for half-maximal inhibition (IC50) stood at 562 nM in assay [1] and 772 nM in assay [2].
For the molecule `O=C(O)c1ccc(-c2cc(NCCc3ccc4[nH]ccc4c3)ncn2)cc1OC1CCC1` [Ex 322, 2-Cyclobutoxy-4-{6-[2-(1H-indol-5-yl)-ethylamino]-pyrimidin-4-yl}-benzoic acid], the IC50 was determined as 809 nM in assay [1] and 814 nM in assay [2].
For the molecule `Oc1c(F)cc(-c2cc(NCCc3ccc4cc[nH]c4c3)ncn2)cc1F` [Ex 307, 2,6-Difluoro-4-{6-[2-(1H-indol-6-yl)-ethylamino]-pyrimidin-4-yl}-phenol], the IC50 in assay [1] is 677 nM; in assay [2], 658 nM.
The like results for `O=C(O)c1ccc(-c2cc(NCCc3cc(Cl)c4c(c3)OCCO4)ncn2)cc1OC1CCC1` [Ex 246] were, in that order, 534 nM and 364 nM.
`CCOc1cc(-c2cc(NCCc3cc4ccccc4cc3OC(F)F)ncn2)ccc1C(=O)O` [Ex 211]: the IC50 was determined as 571 nM in assay [1] and 253 nM in assay [2].
The like results for `Cc1c(CCNc2cc(-c3ccc(-c4nc(O)no4)cc3)ncn2)ccc2ccccc12` [Ex 302] were, in that order, 384 nM and 520 nM.
With `O=C(O)c1coc2cc(-c3cc(NCCc4ccc5sccc5c4)ncn3)ccc12` [Example 467, 6-[6-(2-Benzo[b]thiophen-5-yl-ethylamino)-pyrimidin-4-yl]-benzofuran-3-carboxylic acid], the IC50 was 417 nM in assay [3], 155 nM in assay [2] (BT549 cells) and 187 nM in assay [4].
For `COc1cc2c(cc1CCNc1cc(-c3ccc(CC(=O)O)c(OC(F)F)c3)ncn1)OCCO2` [Example 522, (2-Difluoromethoxy-4-{6-[2-(7-methoxy-2,3-dihydro-benzo[1,4]dioxin-6-yl)-ethylamino]-pyrimidin-4-yl}-phenyl)-acetic acid], the IC50 in assay [3] was determined as 131 nM; in assay [4] it was 204 nM.
Regarding `CC(C)Cc1cc(-c2cc(NCCc3ccc4sccc4c3F)ncn2)ccc1CC(=O)O` [Example 409, (4-{6-[2-(4-Fluoro-benzo[b]thiophen-5-yl)-ethylamino]-pyrimidin-4-yl}-2-isobutyl-phenyl)-acetic acid], the IC50 in assay [3] amounted to 260 nM; in assay [4], 57 nM.
Consider `CCOc1cc(-c2cc(NCCc3ccc4ccsc4c3C)ncn2)ccc1C(=O)O` [Example 470, 2-Ethoxy-4-{6-[2-(7-methyl-benzo[b]thiophen-6-yl)-ethylamino]-pyrimidin-4-yl}-benzoic acid], for which the IC50 worked out at 343 nM in assay [3] and 420 nM in assay [4].
The like results for `CCOc1cc(-c2cc(NCCc3cc(F)c4sccc4c3)ncn2)ccc1C(=O)O` [Example 361, 2-Ethoxy-4-{6-[2-(7-fluoro-benzo[b]thiophen-5-yl)-ethylamino]-pyrimidin-4-yl}-benzoic acid] were, in that order, 187 nM and 116 nM.
With `CCOc1cc(-c2cc(NCCc3c(OC)cc4ccccc4c3C)ncn2)ccc1OCCC(=O)O` [Example 423, 3-(2-Ethoxy-4-{6-[2-(3-methoxy-1-methyl-naphthalen-2-yl)-ethylamino]-pyrimidin-4-yl}-phenoxy)-propionic acid], the half-maximal inhibitory concentration (IC50) in assay [3] stood at 49 nM; in assay [4], 10 nM.
The like results for `COc1cc(-c2cc(NCCc3ccc4c(c3C)OCCO4)ncn2)ccc1OCCC(=O)O` [Example 507, 3-(2-Methoxy-4-{6-[2-(5-methyl-2,3-dihydro-benzo[1,4]dioxin-6-yl)-ethylamino]-pyrimidin-4-yl}-phenoxy)-propionic acid] were, in that order, 170 nM and 209 nM.
Take `CC(C)Oc1cc(-c2cc(NCCc3ccc4sccc4c3F)ncn2)ccc1C(=O)O` [Example 492, 4-{6-[2-(4-Fluoro-benzo[b]thiophen-5-yl)-ethylamino]-pyrimidin-4-yl}-2-isopropoxy-benzoic acid]: the IC50 came out at 204 nM in assay [3] and 142 nM in assay [4].
The like results for `CCCc1cc(-c2cc(NCCc3cc4ccsc4c(F)c3OC)ncn2)ccc1CC(=O)O` [Example 486, (4-{6-[2-(7-Fluoro-6-methoxy-benzo[b]thiophen-5-yl)-ethylamino]-pyrimidin-4-yl}-2-propyl-phenyl)-acetic acid] were, in that order, 95 nM and 136 nM.
The like results for `CCOc1cc(-c2cc(NCCc3cc(F)c4sccc4c3)ncn2)ccc1CC(=O)O` [Example 363, (2-Ethoxy-4-{6-[2-(7-fluoro-benzo[b]thiophen-5-yl)-ethylamino]-pyrimidin-4-yl}-phenyl)-acetic acid] were, in that order, 479 nM and 59 nM.
`Cc1c(CCNc2cc(-c3ccc(C(=O)O)c(OC4CC4)c3)ncn2)ccc2ccccc12` [Example 521, 2-Cyclopropoxy-4-{6-[2-(1-methyl-naphthalen-2-yl)-ethylamino]-pyrimidin-4-yl}-benzoic acid]: the values for the IC50 in assay [3] and in assay [4] were 31 nM and 78 nM, respectively.
The like results for `CCOc1cc(-c2cc(NCCc3cc(F)c4sccc4c3)ncn2)sc1CCC(=O)O` [Example 535, 3-(3-Ethoxy-5-{6-[2-(7-fluoro-benzo[b]thiophen-5-yl)-ethylamino]-pyrimidin-4-yl}-thiophen-2-yl)-propionic acid] were, in that order, 871 nM and 42 nM.
Consider `CCOc1cc(-c2cc(NCCc3cc(F)c4sccc4c3)ncn2)ccc1C(N)=O` [Example 461, 2-Ethoxy-4-{6-[2-(7-fluoro-benzo[b]thiophen-5-yl)-ethylamino]-pyrimidin-4-yl}benzamide], for which the IC50 in assay [3] came out at 231 nM; in assay [4] it was 121 nM.
On to `CSc1cc(-c2cc(NCCc3ccc4ccsc4c3C)ncn2)ccc1C(=O)O` [Example 473, 4-{6-[2-(7-Methyl-benzo[b]thiophen-6-yl)-ethylamino]-pyrimidin-4-yl}-2-methylsulfanyl-benzoic acid], for which the figures for the concentration for half-maximal inhibition (IC50) in assay [3] and in assay [4] were 137 nM and 275 nM, respectively.
On to `COc1cc(-c2cc(NCCc3ccc4sccc4c3F)ncn2)ccc1CC(=O)O` [Example 382, (4-{6-[2-(4-Fluoro-benzo[b]thiophen-5-yl)-ethylamino]-pyrimidin-4-yl}-2-methoxy-phenyl)-acetic acid], for which the IC50 was found to be 160 nM in assay [3] and 81 nM in assay [4].
On to `CCc1cc(-c2cc(NCCc3c(OC)cc4c(c3C)OCCO4)ncn2)ccc1CC(=O)O` [Example 444, (2-Ethyl-4-{6-[2-(7-methoxy-5-methyl-2,3-dihydro-benzo[1,4]dioxin-6-yl)-ethylamino]-pyrimidin-4-yl}-phenyl)-acetic acid], for which the results for the IC50 in assay [3] and in assay [4] were 15 nM and 43 nM, respectively.
With `CCOc1cc(-c2cc(NCCc3ccc4scc(Cl)c4c3)ncn2)ccc1C(=O)O` [Example 490, 4-{6-[2-(3-Chloro-benzo[b]thiophen-5-yl)-ethylamino]-pyrimidin-4-yl}-2-ethoxy-benzoic acid], the figures for the IC50 in assay [3] and in assay [4] were 90 nM and 144 nM, respectively.
`CCOc1cc(-c2cc(NCCc3ccc4sccc4c3F)ncn2)ccc1OCCC(=O)O` [Example 421, 3-(2-Ethoxy-4-{6-[2-(4-fluoro-benzo[b]thiophen-5-yl)-ethylamino]-pyrimidin-4-yl}-phenoxy)-propionic acid]: the results for the IC50 in assay [3] and in assay [4] were 84 nM and 22 nM, respectively.
As to `O=C(O)Cc1ccc(-c2cc(NCCc3cc(F)c4sccc4c3)ncn2)cc1OC(F)F` [Example 540, (2-Difluoromethoxy-4-{6-[2-(7-fluoro-benzo[b]thiophen-5-yl)-ethylamino]-pyrimidin-4-yl}-phenyl)-acetic acid], the IC50 turned out to be 339 nM in assay [3] and 146 nM in assay [4].
For `CCOc1cc(-c2cc(NCCc3cc(F)c4sccc4c3)ncn2)ccc1C(=O)NCCO` [Example 464, 2-Ethoxy-4-{6-[2-(7-fluoro-benzo[b]thiophen-5-yl)-ethylamino]-pyrimidin-4-yl}-N-(2-hydroxy-ethyl)-benzamide], the IC50 in assay [3] turned out to be 300 nM; in assay [4], 87 nM.
`CCOc1cc(-c2cc(NCCc3ccc4ccsc4c3C)ncn2)ccc1CC(=O)O` [Example 472, (2-Ethoxy-4-{6-[2-(7-methyl-benzo[b]thiophen-6-yl)-ethylamino]-pyrimidin-4-yl}-phenyl)-acetic acid]: the results for the IC50 in assay [3] and in assay [4] were 680 nM and 246 nM, respectively.
On to `CN1C(=O)NCc2ccc(-c3cc(NCCc4cc(F)c5sccc5c4)ncn3)cc21` [Example 530, 7-{6-[2-(7-Fluoro-benzo[b]thiophen-5-yl)-ethylamino]-pyrimidin-4-yl}-1-methyl-3,4-dihydro-1H-quinazolin-2-one], for which the IC50 in assay [3] is 514 nM; in assay [4], 44 nM.
